Measured values: PMC3509527, “Leucettamols, Bifunctionalized Marine Sphingoids, Act as Modulators of TRPA1 and TRPM8 Channels” (Marine Drugs, 2012)

Tests used:
Type in all cases: cell-based
[1] = biological target: T1, rat TRPM8 channel (Rattus norvegicus, UniProt Q8R455); assay: Inhibition of icilin-induced [Ca2+]i elevation in TRPM8-HEK-293 cells; conditions: 5-min preincubation, against icilin 0.25 μM
T1 construct: expressed in transfected cells; host or cells: HEK-293
Description: (§1) Assays of TRP-mediated elevation of intracellular [Ca^2+] were performed as previously described. In the current study we have used wild-type HEK293 cells, cells stably expressing rat TRPA1 or human TRPV1 or rat TRPM8. HEK-293 cells stably over-expressing recombinant rat TRPA1, rat TRPM8 or human TRPV1 were selected by G-418 (Geneticin; 600 μg·mL^−1), grown on 100 mm diameter Petri dishes as monolayers in minimum essential medium supplemented with non-essential amino acids, 10% fetal bovine serum and 2 mM glutamine, and maintained under 5% CO2 at 37 °C. Stable expression of each channel was confirmed by real time quantitative PCR (not shown). On the day of the experiment, the cells were loaded for 1 h at 25 °C with the cytoplasmic calcium indicator Fluo-4AM (Invitrogen Carlsbad, CA, USA) 4 μM in DMSO containing 0.02% Pluronic F-127 (Invitrogen, Carlsbad, CA, USA). After loading, cells were washed twice in Tyrode’s buffer (145 mM NaCl, 2.5 mM KCl, 1.5 mM CaCl2, 1.2 mM MgCl2, 10 mM D-glucose and 10 mM HEPES, pH 7.4), re-suspended in the same buffer, and transferred to the quartz cuvette of the spectrofluorimeter (λex = 488 nm; λem = 516 nm) (Perkin-Elmer LS50B equipped with PTP-1 Fluorescence Peltier System; Perkin-Elmer Life and Analytical Sciences, Waltham, MA, USA) under continuous stirring. About 100,000 cells were used for each data point. Experiments were carried out at 22 °C by measuring cell fluorescence before and after the addition of various concentrations of test compounds. The values of the effect on [Ca^2+]i in wild-type (i.e., not transfected with any construct) HEK-293 cells were taken as baselines and subtracted from the values obtained from transfected cells. The potency of test compounds (EC50 values) was determined as the concentration of test substances required to produce half-maximal increases in [Ca^2+]i. The efficacy of the agonists on TRPA1 is expressed as a percentage of the effect obtained with 100 μM allylisothiocyanate (AITC). Antagonist/desensitizing behaviour was evaluated against icilin (0.25 μM) for TRPM8 and AITC (100 μM) for TRPA1 by adding the compounds in the quartz cuvette 5 min before stimulation of cells with agonists. Data are expressed as the concentration exerting a half-maximal inhibition of agonist effect (IC50). All determinations were at least performed in triplicate. Dose-response curves were fitted by a sigmoidal regression with variable slope. Curve fitting and parameter estimation were performed with GraphPad Prism (GraphPad Software Inc., San Diego, CA, USA).

[2] = biological target: T2, rat TRPA1 channel (Rattus norvegicus, UniProt Q6RI86); assay: TRPA1 desensitization/inhibition of AITC-induced [Ca2+]i elevation in TRPA1-HEK-293 cells; conditions: 5-min preincubation, against AITC 100 μM
T2 construct: expressed in transfected cells; host or cells: HEK-293
Description: as §1, with “Stable expression of each channel was confirmed by real time quantitative PCR (not shown).” left out

[3] = biological target: T2, rat TRPA1 channel; assay: TRPA1 activation, fluorometric intracellular [Ca2+]i in TRPA1-HEK293 cells; conditions: for Efficacy TRPA1 (% AITC 100 μM) / EC50: rat TRPA1-HEK293 cells; for EC50: read-out: Potency EC50 TRPA1
Description: as §1, with “Stable expression of each channel was confirmed by real time quantitative PCR (not shown).” left out

[4] = biological target: T3, human recombinant TRPV1 channel (Homo sapiens, UniProt Q8NER1); assay: Elevation of intracellular Ca2+ in HEK-293 cells stably transfected with TRPV1; conditions: at 10 μM
T3 construct: expressed in transfected cells; host or cells: HEK-293
Description: Assays of TRP-mediated elevation of intracellular [Ca^2+] were performed as previously described. In the current study we have used wild-type HEK293 cells, cells stably expressing rat TRPA1 or human TRPV1 or rat TRPM8. HEK-293 cells stably over-expressing recombinant rat TRPA1, rat TRPM8 or human TRPV1 were selected by G-418 (Geneticin; 600 μg·mL^−1), grown on 100 mm diameter Petri dishes as monolayers in minimum essential medium supplemented with non-essential amino acids, 10% fetal bovine serum and 2 mM glutamine, and maintained under 5% CO2 at 37 °C. […] After loading, cells were washed twice in Tyrode’s buffer (145 mM NaCl, 2.5 mM KCl, 1.5 mM CaCl2, 1.2 mM MgCl2, 10 mM D-glucose and 10 mM HEPES, pH 7.4), re-suspended in the same buffer, and transferred to the quartz cuvette of the spectrofluorimeter (λex = 488 nm; λem = 516 nm) (Perkin-Elmer LS50B equipped with PTP-1 Fluorescence Peltier System; Perkin-Elmer Life and Analytical Sciences, Waltham, MA, USA) under continuous stirring. […] Experiments were carried out at 22 °C by measuring cell fluorescence before and after the addition of various concentrations of test compounds. […] The potency of test compounds (EC50 values) was determined as the concentration of test substances required to produce half-maximal increases in [Ca^2+]i. […] Data are expressed as the concentration exerting a half-maximal inhibition of agonist effect (IC50). […]

T2 sequence (Q6RI86 whole entry): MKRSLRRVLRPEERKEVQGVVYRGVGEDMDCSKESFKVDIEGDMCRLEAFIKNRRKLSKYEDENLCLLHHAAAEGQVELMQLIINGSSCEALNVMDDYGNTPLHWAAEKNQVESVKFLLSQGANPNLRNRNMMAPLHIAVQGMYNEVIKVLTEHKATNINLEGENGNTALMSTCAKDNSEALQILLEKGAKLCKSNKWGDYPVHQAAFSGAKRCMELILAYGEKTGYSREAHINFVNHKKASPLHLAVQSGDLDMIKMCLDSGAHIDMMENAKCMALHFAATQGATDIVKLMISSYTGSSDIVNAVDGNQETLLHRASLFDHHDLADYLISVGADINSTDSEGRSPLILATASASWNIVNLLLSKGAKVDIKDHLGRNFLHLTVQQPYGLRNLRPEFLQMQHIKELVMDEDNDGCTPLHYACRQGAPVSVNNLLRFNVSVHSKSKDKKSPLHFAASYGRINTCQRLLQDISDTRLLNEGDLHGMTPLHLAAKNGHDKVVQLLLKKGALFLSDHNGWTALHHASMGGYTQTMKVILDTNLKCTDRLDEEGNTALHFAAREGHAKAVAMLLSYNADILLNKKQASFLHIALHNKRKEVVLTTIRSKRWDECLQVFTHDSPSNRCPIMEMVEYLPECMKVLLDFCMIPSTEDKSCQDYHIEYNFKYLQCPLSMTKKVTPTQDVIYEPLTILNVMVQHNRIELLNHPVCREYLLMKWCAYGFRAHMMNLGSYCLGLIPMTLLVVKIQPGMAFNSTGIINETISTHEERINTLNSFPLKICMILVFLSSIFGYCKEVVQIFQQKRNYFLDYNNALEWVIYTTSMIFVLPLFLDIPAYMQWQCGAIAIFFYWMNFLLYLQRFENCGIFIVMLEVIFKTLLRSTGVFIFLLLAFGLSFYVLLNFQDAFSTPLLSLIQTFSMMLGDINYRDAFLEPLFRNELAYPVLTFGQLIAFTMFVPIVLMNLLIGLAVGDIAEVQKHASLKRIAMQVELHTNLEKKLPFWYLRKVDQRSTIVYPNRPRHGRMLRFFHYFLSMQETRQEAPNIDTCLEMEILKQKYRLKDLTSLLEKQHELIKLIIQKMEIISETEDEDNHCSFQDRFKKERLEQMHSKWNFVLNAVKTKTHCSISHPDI
T1 sequence (Q8R455 whole entry): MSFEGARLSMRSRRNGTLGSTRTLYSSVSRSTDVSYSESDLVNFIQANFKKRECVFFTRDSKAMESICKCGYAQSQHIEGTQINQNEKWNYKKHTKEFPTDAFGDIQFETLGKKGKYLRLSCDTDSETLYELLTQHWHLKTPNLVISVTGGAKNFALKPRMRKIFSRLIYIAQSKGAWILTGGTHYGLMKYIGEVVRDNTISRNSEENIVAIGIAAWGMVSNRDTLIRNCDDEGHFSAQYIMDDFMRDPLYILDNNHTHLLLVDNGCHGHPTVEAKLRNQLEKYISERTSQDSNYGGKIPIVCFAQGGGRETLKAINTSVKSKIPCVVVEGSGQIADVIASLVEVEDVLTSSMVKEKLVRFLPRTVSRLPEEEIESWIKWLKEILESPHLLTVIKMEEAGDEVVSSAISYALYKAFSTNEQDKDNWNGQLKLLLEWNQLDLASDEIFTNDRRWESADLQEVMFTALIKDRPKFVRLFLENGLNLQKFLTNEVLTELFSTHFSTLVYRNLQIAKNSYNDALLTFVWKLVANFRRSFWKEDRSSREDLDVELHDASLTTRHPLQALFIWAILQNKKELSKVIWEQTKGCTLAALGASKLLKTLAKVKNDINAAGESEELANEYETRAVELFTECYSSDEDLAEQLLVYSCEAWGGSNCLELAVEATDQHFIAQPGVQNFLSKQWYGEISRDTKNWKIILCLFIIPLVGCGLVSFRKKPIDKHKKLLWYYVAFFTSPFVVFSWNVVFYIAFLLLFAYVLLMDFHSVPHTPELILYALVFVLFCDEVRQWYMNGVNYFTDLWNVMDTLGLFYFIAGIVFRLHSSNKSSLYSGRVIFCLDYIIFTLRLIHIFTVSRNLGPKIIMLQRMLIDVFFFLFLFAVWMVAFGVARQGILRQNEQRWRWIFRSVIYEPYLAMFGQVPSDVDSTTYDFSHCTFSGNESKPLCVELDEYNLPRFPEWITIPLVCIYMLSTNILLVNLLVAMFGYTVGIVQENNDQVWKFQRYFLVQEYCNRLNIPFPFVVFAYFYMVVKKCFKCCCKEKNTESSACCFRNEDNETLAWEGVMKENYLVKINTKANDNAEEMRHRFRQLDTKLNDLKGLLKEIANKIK
T3 sequence (Q8NER1 whole entry): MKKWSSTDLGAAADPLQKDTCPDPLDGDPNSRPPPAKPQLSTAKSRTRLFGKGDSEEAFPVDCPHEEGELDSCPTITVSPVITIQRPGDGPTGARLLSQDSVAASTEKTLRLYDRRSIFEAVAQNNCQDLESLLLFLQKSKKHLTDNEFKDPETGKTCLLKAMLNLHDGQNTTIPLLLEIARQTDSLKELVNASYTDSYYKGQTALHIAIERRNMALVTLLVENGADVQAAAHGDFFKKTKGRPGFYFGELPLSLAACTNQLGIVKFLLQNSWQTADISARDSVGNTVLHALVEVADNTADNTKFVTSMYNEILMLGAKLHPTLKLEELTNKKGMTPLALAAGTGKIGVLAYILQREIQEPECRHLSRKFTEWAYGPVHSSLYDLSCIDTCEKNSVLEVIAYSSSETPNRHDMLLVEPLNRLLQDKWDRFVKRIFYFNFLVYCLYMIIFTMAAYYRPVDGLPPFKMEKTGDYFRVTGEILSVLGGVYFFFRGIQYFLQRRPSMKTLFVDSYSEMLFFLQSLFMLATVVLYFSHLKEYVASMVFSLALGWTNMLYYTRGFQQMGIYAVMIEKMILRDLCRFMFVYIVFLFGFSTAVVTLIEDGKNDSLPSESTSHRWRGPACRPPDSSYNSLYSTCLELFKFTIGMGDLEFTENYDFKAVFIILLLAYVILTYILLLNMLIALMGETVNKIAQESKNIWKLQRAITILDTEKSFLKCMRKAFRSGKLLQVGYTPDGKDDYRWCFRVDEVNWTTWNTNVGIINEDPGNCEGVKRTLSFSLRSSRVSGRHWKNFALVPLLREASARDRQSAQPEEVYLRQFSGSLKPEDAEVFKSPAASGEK

Row | Compound | IC50 [1] [µM] | Reduction of efficacy at TRPA1 versus parent compound 1 [3] [%] | Efficacy TRPA1 (% AITC 100 μM) [3] [% AITC 100 μM] | EC50 [3] [µM] | Efficacy TRPV1 (% of 4 μM ionomycin) [4] | IC50 [2] [µM]
1 | CC(=O)N[C@H](C)[C@H](C/C=C\CC(/C=C/C=C\C/C=C\C/C=C\C/C=C\CCCCCC[C@H](OC(C)=O)[C@@H](C)NC(C)=O)OC(C)=O)OC(C)=O (some centres unmarked) [Compound 4] | 65.7 ± 8.6 | – | – | – | – | –
2 | C[C@@H](N)[C@@H](O)CCCCCCCCCCCCCCCCCCCCCCCC[C@H](O)[C@@H](C)N [Compound 5] | 6.5 ± 0.3 | 30 | 69.2 ± 0.1 | 2.6 ± 0.1 | – | 6.5 ± 0.4
3 | CC(=O)N[C@H](C)[C@H](CCCCCCCCCCCCCCCCCCCCCCCC[C@H](OC(C)=O)[C@@H](C)NC(C)=O)OC(C)=O [Compound 6] | 29 ± 0.6 | – | 100.0 ± 9.7 | 9.7 ± 3.3 | – | 12.7 ± 0.8

Continued, in another order:

Row | IC50 [1] [µM] | Reduction of efficacy at TRPA1 versus parent compound 1 [3] [%] | Efficacy TRPA1 (% AITC 100 μM) [3] [% AITC 100 μM] | EC50 [3] [µM] | Efficacy TRPV1 (% of 4 μM ionomycin) [4] | Compound | IC50 [2] [µM]
4 | 44.6 ± 10.1 | – | – | – | – | CC(=O)N[C@H](C)[C@H](C/C=C\C/C=C\C/C=C\C/C=C\C/C=C\C/C=C\CCCCCC[C@H](OC(C)=O)[C@@H](C)NC(C)=O)OC(C)=O [Compound 2] | –
5 | 6.5 ± 0.3 | – | 101.9 ± 12.4 | 3.7 ± 1.7 | – | C[C@@H](N)[C@@H](O)C/C=C\C/C=C\C/C=C\C/C=C\C/C=C\C/C=C\CCCCCC[C@H](O)[C@@H](C)N [Leucettamol A (1), leucettamol A] | 4.7 ± 0.2
6 | 6.4 ± 1 | – | 103.3 ± 10.6 | 5.9 ± 1.9 | – | C[C@@H](N)[C@@H](O)C/C=C\CC(O)/C=C/C=C\C/C=C\C/C=C\C/C=C\CCCCCC[C@H](O)[C@@H](C)N (some centres unmarked) [Leucettamol B (3), leucettamol B] | 4.7 ± 0.9
7 | – | – | – | – | 78.6 ± 2.4 % of 4 μM ionomycin | COc1cc(CNC(=O)CCCC/C=C/C(C)C)ccc1O [capsaicin] | –
